What all share (type): cell-based
For assay [1], the system named is Chloroquine sensitive (CQS) P. falciparum strain. Briefly: Schizont maturation inhibition (SMI), chloroquine sensitive strain. The conditions noted are these: Plasmodium falciparum, schizont maturation inhibition determined after 24 hr. How it is done:
(§1) Parasites were cultured in O (+) erythrocytes in RPMI-1640 media supplemented with 25 mM HEPES buffer and 10% AB (+) serum by candlejar technique.^9 Initial culture was maintained in small vials (2.5 cm dia.) with 10% haematocrit, i.e. 10 μl erythrocytes containing 1.5% ring stage parasite in 100 μl complete media. The culture volume per well for the assay was 100 μl. Parasitamia was determined for each set of culture, number of parasites for the assay were adjusted at 1 to 1.5% by diluting with fresh O (+) RBC. Assay was done in 96 well microtitre flat-bottomed tissue culture plates. Parasite culture was synchronized at ring forms using density gradient method^10 and cultured for 24 h. in the presence of various doses of compounds and chloroquine for their effect in schizont maturation. Test was done in duplicate wells for each dose of the drugs. Control culture was done with RPMI-164 containing 10% AB (+) serum. Growth of the parasites from duplicate wells of each concentration was monitored in JSB stained^11 blood smears by counting number of schizont per 200 asexual parasites. Percent schizont maturation inhibition was calculated by the formula: (1−Nt/Nc)×100 where, Nt and Nc represent the number of schizont in the test and control well respectively.

Assay [2] has as its system Chloroquine resistant (CQR) P. falciparum strain. Description: Total parasite growth inhibition (PGI), chloroquine resistant strain. Particulars: Plasmodium falciparum, total parasite growth inhibition determined after 48 hr.
Assay [3] has as its system Chloroquine sensitive (CQS) P. falciparum strain. Briefly: Total parasite growth inhibition (PGI), chloroquine sensitive strain. Particulars: Plasmodium falciparum, total parasite growth inhibition determined after 48 hr.
The subject of assay [4] is Chloroquine resistant (CQR) P. falciparum strain. Briefly: Schizont maturation inhibition (SMI), chloroquine resistant strain. The conditions noted are these: Plasmodium falciparum, schizont maturation inhibition determined after 24 hr. The protocol: as §1

In brackets after ≈: the same amount, converted by molar mass.

One may read the IC50 as the midpoint of a concentration-inhibition curve. A lower IC50 goes with inhibition by little substance. As usually defined, the IC90 is the concentration at which the effect reaches the 90% level. A higher IC90 goes with a need for much substance. Regarding `C=C(C#N)C(O)c1cc(C)cnc1Cl` (stereo not drawn) [Ia, 2-[(2-Chloro-5-methylpyridine-3-yl)(hydroxy)methyl]acrylonitrile], the IC50 was found to be 1.25 µg/mL (≈ 5.99 µM) in assay [1], 10.5 µg/mL (≈ 50.3 µM) in assay [2], 1.3 µg/mL (≈ 6.23 µM) in assay [3] and 22.5 µg/mL (≈ 108 µM) in assay [4]. Also, the IC90 in assay [1] was 25.5 µg/mL (≈ 122 µM); in assay [2], 300 µg/mL (≈ 1440 µM); in assay [3], 85 µg/mL (≈ 407 µM); in assay [4] it was 125 µg/mL (≈ 599 µM).

`C=C(C#N)C(O)c1cc(CC)cnc1Cl` (stereo not drawn) [Ib, 2-[(2-Chloro-5-ethylpyridine-3-yl)(hydroxy)methyl]acrylonitrile]: the IC50 in assay [1] turned out to be 1.8 µg/mL (≈ 8.08 µM); in assay [2] it was 5.5 µg/mL (≈ 24.7 µM); in assay [3], 4 µg/mL (≈ 18 µM); in assay [4] it was 2.5 µg/mL (≈ 11.2 µM). For the same compound, the IC90 was found to be 15.5 µg/mL (≈ 69.6 µM) in assay [1], 26 µg/mL (≈ 117 µM) in assay [2], 31 µg/mL (≈ 139 µM) in assay [3] and 6.5 µg/mL (≈ 29.2 µM) in assay [4].

`C=C(C#N)C(O)c1cc(-c2ccccc2)cnc1Cl` (stereo not drawn) [Ic, 2-[(2-Chloro-5-phenylpyridine-3-yl)(hydroxy)methyl]acrylonitrile]: the IC50 in assay [1] worked out at 3.6 µg/mL (≈ 13.3 µM); in assay [2] it was 2.2 µg/mL (≈ 8.13 µM); in assay [3], 8 µg/mL (≈ 29.6 µM); in assay [4], 0.9 µg/mL (≈ 3.32 µM). Besides, the IC90 in assay [1] was 25.5 µg/mL (≈ 94.2 µM); in assay [2], 6.75 µg/mL (≈ 24.9 µM); in assay [3], 23 µg/mL (≈ 85 µM); in assay [4], 1.5 µg/mL (≈ 5.54 µM).

`C=C(C#N)C(O)c1ccc(C(=O)OC)nc1Cl` (stereo not drawn) [Id, Methyl 6-chloro-5-(2-cyano-1-hydroxyallyl) 2-pyridine carboxylate]: the IC50 in assay [1] was 3.4 µg/mL (≈ 13.5 µM); in assay [2] it was 6.75 µg/mL (≈ 26.7 µM); in assay [3] it was 7 µg/mL (≈ 27.7 µM); in assay [4], 5.75 µg/mL (≈ 22.8 µM). The IC90 came out at 22 µg/mL (≈ 87.1 µM) in assay [1], 29 µg/mL (≈ 115 µM) in assay [2], 29 µg/mL (≈ 115 µM) in assay [3] and 25.5 µg/mL (≈ 101 µM) in assay [4].

Take `C=C(C(=O)OC)C(O)c1cc(C)cnc1Cl` (stereo not drawn) [Ie, Methyl 2-[(2-chloro-5-methylpyridine-3-)(hydroxy)methyl]acrylate]: the IC50 is 18 µg/mL (≈ 74.5 µM) in assay [1], 5.75 µg/mL (≈ 23.8 µM) in assay [2], 28.5 µg/mL (≈ 118 µM) in assay [3] and 3.05 µg/mL (≈ 12.6 µM) in assay [4]. Further, the IC90 in assay [1] stood at 32 µg/mL (≈ 132 µM); in assay [2] it was 27.5 µg/mL (≈ 114 µM); in assay [3] it was 115 µg/mL (≈ 476 µM); in assay [4], 7 µg/mL (≈ 29 µM).

On to `C=C(C(=O)OC)C(O)c1cc(-c2ccccc2)cnc1Cl` (stereo not drawn) [If, Methyl 2-[(2-chloro-5-phenylpyridine-3-yl)(hydroxy)methyl]acrylate], for which the IC50 in assay [1] is 45 µg/mL (≈ 148 µM); in assay [2], 10.8 µg/mL (≈ 35.4 µM); in assay [3], 115 µg/mL (≈ 379 µM); in assay [4] it was 5 µg/mL (≈ 16.5 µM). Moreover, the IC90 in assay [1] turned out to be 125 µg/mL (≈ 412 µM); in assay [2], 77.5 µg/mL (≈ 255 µM); in assay [3], 350 µg/mL (≈ 1150 µM); in assay [4], 30 µg/mL (≈ 98.8 µM).

(Values after US7666883B2, “Antimalarial Baylis-Hillman adducts and a process for the preparation thereof” (Council of Scientific and Industrial Research, priority 2005, dated 2010).)
